Results: patent publication US20250163057A1, “DCN-1 MODULATING COMPOUNDS AND METHODS OF USE THEREOF” (Cellarity, Inc., priority 2023, published 2025)
Where two headings read alike, the source gives them in different places.

Target: DCN1 (DCUND1) protein PONY domain (Homo sapiens (Human), UniProt Q96GG9)
Test: TR-FRET assay, DCN1 binding with FAM-labeled probe
Description: A TR-FRET assay was performed to evaluate the ability of the compounds to bind the DCN-1 protein.
The TR-FRET assay was designed following the Scott et al. protocol (Scott et al., Nat Chem Biol. 2017 August; 13(8): 850-857. Doi:10.1038/nchembio.2386). The recombinant form of the DCN1 (DCUND1) protein PONY domain was produced using an E. coli expression system at Viva Biotech (China). The DCN1 protein was biotinylated (EZ sulfo-NHS-LC-biotin; Thermofisher) for labeling with streptavidin terbium (Tb) cryptate in the reaction. The probe was changed to a non-covalent DCN1 inhibitor labeled with carboxyfluorescein (FAM; Zhou et al., Nat Commun. 2017; 8: 1150. Doi: 10.1038/s41467-017-01243-7). Buffer conditions were modified to enhance protein stability by exchanging Tween20 for TritonX and increasing NaCl to 200 mM. The compounds were screened against 5 nM DCN1 and 20 nM FAM-probe or 0.31 nM DCN1 and 900 nM total probe (100 nM FAM-labeled plus 800 nM unlabeled). The TR-FRET ratio between Tb-DCN1 and the FAM-labeled probe was measured in a 384-well opti-plate (Perkin Elmer) using a plate reader (BMG) at 1, 5, and 24 hrs after treatment with compound (final DMSO concentration of 0.1%).

[1] = 24 hr after treatment with compound, read-out: TR FRET IC50 24 hr
[2] = TR FRET IC50 1 hr (nM), 1 hr after treatment with compound

DCN1 (DCUND1) protein PONY domain, sequence (Q96GG9 60-248): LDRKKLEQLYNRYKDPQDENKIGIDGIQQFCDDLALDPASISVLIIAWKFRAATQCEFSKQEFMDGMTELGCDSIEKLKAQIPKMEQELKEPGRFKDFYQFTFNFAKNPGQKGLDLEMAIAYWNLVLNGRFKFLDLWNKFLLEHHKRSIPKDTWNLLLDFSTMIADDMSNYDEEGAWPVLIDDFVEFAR

Row | Compound | IC50 [1] | IC50 [2]
1 | CCN1C(=O)[C@@H](NC(=O)c2cccc(C(F)(F)F)c2)[C@@H](c2ccc(F)cc2)c2c(/C=C3/CCC(=O)N3)nn(-c3ccccc3)c21 (racemic) [Compound I-70, rac-N-((4R,5R)-7-ethyl-4-(4-fluorophenyl)-6-oxo-3-((Z)-(5-oxopyrrolidin-2-ylidene)methyl)-1-phenyl-4,5,6,7-tetrahydro-1H-pyrazolo[3,4-b]pyridin-5-yl)-3-(trifluoromethyl)benzamide] | 1000 to 3000 nM | 1000 to 3000 nM
2 | CCN1C(=O)[C@@H](NC(=O)c2cccc(C(F)(F)F)c2)[C@@H](c2ccc(F)cc2)c2c(CNCC#N)nn(-c3ccccc3)c21 (racemic) [Compound I-96, rac-N-((4R,5R)-3-(((cyanomethyl)amino)methyl)-7-ethyl-4-(4-fluorophenyl)-6-oxo-1-phenyl-4,5,6,7-tetrahydro-1H-pyrazolo[3,4-b]pyridine-5-yl)-3-(trifluoromethyl)benzamide] | 200 to 1000 nM | 200 to 1000 nM
3 | CCN1C(=O)[C@@H](NC(=O)c2cccc(C(F)(F)F)c2)[C@@H](c2ccc(F)cc2)c2c(CNC(=O)/C=C/C(=O)NCCO)nn(-c3ccccc3)c21 (racemic) [Compound I-15, rac-N1-(((4R,5R)-7-ethyl-4-(4-fluorophenyl)-6-oxo-1-phenyl-5-(3-(trifluoromethyl)benzamido)-4,5,6,7-tetrahydro-1H-pyrazolo[3,4-b]pyridine-3-yl)methyl)-N4-(2-hydroxyethyl)fumaramide] | 1000 to 3000 nM | 1000 to 3000 nM
4 | CCN1C(=O)[C@@H](NC(=O)c2cccc(C(F)(F)F)c2)[C@@H](c2ccc(F)cc2)c2c([C@@H](O)CNC#N)nn(-c3ccccc3)c21 [Compound I-130] | 200 to 1000 nM | 200 to 1000 nM
5 | CCN1C(=O)[C@@H](NC(=O)c2cccc(C(F)(F)F)c2)[C@@H](c2ccc(F)cc2)c2c(CNC(=O)C3=C(C(=O)OC)CCC3)nn(-c3ccccc3)c21 [Compound I-135] | 200 to 1000 nM | 200 to 1000 nM
6 | CCN1C(=O)[C@@H](NC(=O)c2cccc(C#N)c2)[C@@H](C2CC2)c2c(C(=O)N3[C@H](C#N)C[C@H]4C[C@H]43)nn(C3CCOCC3)c21 [Compound I-698] | 200 to 1000 nM | 200 to 1000 nM
7 | CCN1C(=O)[C@@H](NC(=O)c2ccc3c(c2)CCO3)[C@@H](C2CC2)c2c(C(=O)N3[C@H](C#N)C[C@H]4C[C@H]43)nn(C3CCOCC3)c21 [Compound I-547] | ≤ 200 nM | 200 to 1000 nM
8 | CCN1C(=O)[C@@H](NC(=O)c2cccc(C(F)(F)F)c2)[C@@H](c2ccc(F)cc2)c2c(C(=O)NCCC#N)nn(-c3ccccc3)c21 (racemic) [Compound I-81, rac-(4R,5R)—N-(2-cyanoethyl)-7-ethyl-4-(4-fluorophenyl)-6-oxo-1-phenyl-5-(3-(trifluoromethyl)benzamido)-4,5,6,7-tetrahydro-1H-pyrazolo[3,4-b]pyridine-3-carboxamide] | 1000 to 3000 nM | 1000 to 3000 nM
9 | CCN1C(=O)[C@@H](NC(=O)C2CC(C)C2)[C@@H](C2CC2)c2c(C(=O)N3[C@H](C#N)C[C@H]4C[C@H]43)nn(C3CCOCC3)c21 (stereo partly shown) [Compound I-655] | 1000 to 3000 nM | 1000 to 3000 nM
10 | CCN1C(=O)[C@@H](NC(=O)c2cccc(C(F)(F)F)c2)[C@@H](c2ccc(F)cc2)c2c(CNC(=O)C3(C#N)COC3)nn(-c3ccccc3)c21 (racemic) [Compound I-100, rac-3-cyano-N-(((4R,5R)-7-ethyl-4-(4-fluorophenyl)-6-oxo-1-phenyl-5-(3-(trifluoromethyl)benzamido)-4,5,6,7-tetrahydro-1H-pyrazolo[3,4-b]pyridine-3-yl)methyl)oxetane-3-carboxamide] | 200 to 1000 nM | 200 to 1000 nM
11 | CCN1C(=O)[C@H](NC(=O)c2cccc(C(F)(F)F)c2)[C@H](c2ccc(F)cc2)c2c([C@@H](C)N(C)C#N)nn(-c3ccccc3)c21 (relative stereo) [Compound I-79, N-((4R*,5R*)-7-ethyl-4-(4-fluorophenyl)-3-((R)-1-(N-methylcyanamido)ethyl)-6-oxo-1-phenyl-4,5,6,7-tetrahydro-1H-pyrazolo[3,4-b]pyridine-5-yl)-3-(trifluoromethyl)benzamide] | 1000 to 3000 nM | 1000 to 3000 nM
